These are literature values, as cited in patent US10392388B2, “Meropenem derivatives and uses thereof” (Kala Pharmaceuticals, Inc., priority 2013, dated 2019).

Bounds are passed on as bounds.

For the compound `C[C@@H](O)[C@H]1C(=O)N2C(C(=O)O)=C(S[C@@H]3CN[C@H](C(=O)N(C)C)C3)[C@H](C)[C@H]12` [Meropenem, meropenem], the water solubility is over 1000 µg/mL. For the same compound, the MIC90 result in the data set with Pseudomonas aeruginosa was “about 8 μg/mL”.
